Where two headings read alike, the source gives them in different places.
Assays:
[1] = MR contrast enhancement of kidney in rabbits (T1W spin echo, 1.5 Tesla); format: in vivo, New Zealand White rabbits; conditions: 0.1 mM/kg intravenously; for time at which contrast enhancement of kidney was well demonstrated: after contrast injection
Source text: (§1) TR=750 msec. TE=37 msec. NEX=4. Flow compensation was used.

[2] = MR contrast enhancement of muscle in rabbits (T1W spin echo, 1.5 Tesla); format: in vivo, New Zealand White rabbits; conditions: 0.1 mM/kg intravenously
Source text: as §1

[3] = for time at which contrast enhancement of liver was well demonstrated: after contrast injection
Method: New Zealand White rabbits were used for all magnetic resonance imaging (MRI) experiments. A General Electric 1.5 Tesla system was used with the knee coil. T1W spin echo images were obtained every 10 minutes following contrast injection. Data points were taken as the time at the end of the scan. Each data point was measured in triplicate with sample signal intensities taken from the liver, kidney, and muscle. TR=750 msec. TE=37 msec. NEX=4. Flow compensation was used. Sedation was performed by using an initial injection of intramuscular ketamine at 110 mg/kg and pentobarbital intravenously at 2.2 cc/kg. Sedation was maintained with intermittent pentobarbital injections as needed at 1 cc/kg.
Two rabbits were given gadolinium DTPA bis-glucosamide at 0.1 mM/kg intravenously. MR images were taken before and after the injection of the contrast agent.
MR images were taken before and after the injection of contrast agent.
Gadolinium DTPA bis-pyriodoxamide was given intravenously at 0.1 mM/kg. MR images were taken before and after the injection of contrast agent.
Comparison is made with two animals which were given Gd DTPA (Schering A. G., Berlin, Germany) 0.1 mM/kg intravenously.

[4] = 11 min. P.I., 0.1 mM/kg intravenously
[5] = 21 min. P.I., 0.1 mM/kg intravenously
[6] = 31 min. P.I., 0.1 mM/kg intravenously
[7] = 44 min. P.I., 0.1 mM/kg intravenously
[8] = 54 min. P.I., 0.1 mM/kg intravenously
[9] = 64 min. P.I., 0.1 mM/kg intravenously
[10] = 76 min. P.I., 0.1 mM/kg intravenously
[11] = 85 min. P.I., 0.1 mM/kg intravenously
[12] = Pre-Contrast, 0.1 mM/kg intravenously

O=C([O-])CN(CCN(CC(=O)[O-])CC(=O)[O-])CCN(CC(=O)[O-])CC(=O)[O-].[Gd+3] [Gd DTPA, gadolinium diethylene triamine pentaacetic acid complex, reference compound]
contrast enhancement, kidney composite (av of 3) ([1]; 11 min. P.I.): 52.456%
contrast enhancement, kidney composite (av of 3) ([1]; 21 min. P.I.): 40.275%
contrast enhancement, kidney composite (av of 3) ([1]; 31 min. P.I.): 28.971%
contrast enhancement, kidney composite (av of 3) ([1]; 44 min. P.I.): 29.243%
contrast enhancement, kidney composite (av of 3) ([1]; 54 min. P.I.): 28.405%
contrast enhancement, kidney composite (av of 3) ([1]; 64 min. P.I.): 27.052%
contrast enhancement, kidney composite (av of 3) ([1]; 76 min. P.I.): 23.751%
contrast enhancement, kidney composite (av of 3) ([1]; 85 min. P.I.): 14.643%
contrast enhancement, kidney composite (av of 3) ([1]; Pre-Contrast): 0.000%
contrast enhancement, muscle composite (av of 3) ([2]; 11 min. P.I.): 12.981%
contrast enhancement, muscle composite (av of 3) ([2]; 21 min. P.I.): 6.801%
contrast enhancement, muscle composite (av of 3) ([2]; 31 min. P.I.): 2.020%
contrast enhancement, muscle composite (av of 3) ([2]; 44 min. P.I.): -1.543%
contrast enhancement, muscle composite (av of 3) ([2]; 54 min. P.I.): -0.464%
contrast enhancement, muscle composite (av of 3) ([2]; 64 min. P.I.): -0.873%
contrast enhancement, muscle composite (av of 3) ([2]; 76 min. P.I.): -2.407%
contrast enhancement, muscle composite (av of 3) ([2]; 85 min. P.I.): -0.899%
contrast enhancement, muscle composite (av of 3) ([2]; Pre-Contrast): 0.000%
contrast enhancement, liver composite (av of 3) [3, 4]: 4.822%
contrast enhancement, liver composite (av of 3) [3, 5]: 0.852%
contrast enhancement, liver composite (av of 3) [3, 6]: 6.132%
contrast enhancement, liver composite (av of 3) [3, 7]: -2.041%
contrast enhancement, liver composite (av of 3) [3, 8]: -2.714%
contrast enhancement, liver composite (av of 3) [3, 9]: -1.063%
contrast enhancement, liver composite (av of 3) [3, 10]: -0.232%
contrast enhancement, liver composite (av of 3) [3, 11]: -0.422%
contrast enhancement, liver composite (av of 3) [3, 12]: 0.000%

O=C([O-])CN(CCN(CC(=O)[O-])CC(=O)N[C@H]1C(O)O[C@H](CO)[C@H](O)[C@@H]1O)CCN(CC(=O)[O-])CC(=O)N[C@H]1C(O)O[C@H](CO)[C@H](O)[C@@H]1O.[Gd+3] (stereo partly shown) [Gd DTPA Galactosamide, gadolinium DTPA galactosamide]
course of contrast enhancement after maximum, kidney [1]: decreased very slowly
time of maximum contrast enhancement, kidney [1]: 22 min
time at which contrast enhancement of kidney was well demonstrated [1]: 11 min
contrast enhancement, kidney composite (av of 3) ([1]; 11 min. P.I.): 52.932%
contrast enhancement, kidney composite (av of 3) ([1]; 21 min. P.I.): 47.999%
contrast enhancement, kidney composite (av of 3) ([1]; 31 min. P.I.): 46.968%
contrast enhancement, kidney composite (av of 3) ([1]; 44 min. P.I.): 41.697%
contrast enhancement, kidney composite (av of 3) ([1]; 54 min. P.I.): 41.936%
contrast enhancement, kidney composite (av of 3) ([1]; 64 min. P.I.): 42.336%
contrast enhancement, kidney composite (av of 3) ([1]; 76 min. P.I.): 37.335%
contrast enhancement, kidney composite (av of 3) ([1]; 85 min. P.I.): 26.562%
contrast enhancement, kidney composite (av of 3) ([1]; Pre-Contrast): 0.000%
enhancement of the muscle compared to Gd DTPA [2]: improved enhancement
contrast enhancement, muscle composite (av of 3) ([2]; 11 min. P.I.): 18.349%
contrast enhancement, muscle composite (av of 3) ([2]; 21 min. P.I.): 24.593%
contrast enhancement, muscle composite (av of 3) ([2]; 31 min. P.I.): 12.578%
contrast enhancement, muscle composite (av of 3) ([2]; 44 min. P.I.): 7.783%
contrast enhancement, muscle composite (av of 3) ([2]; 54 min. P.I.): 14.531%
contrast enhancement, muscle composite (av of 3) ([2]; 64 min. P.I.): 12.252%
contrast enhancement, muscle composite (av of 3) ([2]; 76 min. P.I.): -10.121%
contrast enhancement, muscle composite (av of 3) ([2]; 85 min. P.I.): -3.078%
contrast enhancement, muscle composite (av of 3) ([2]; Pre-Contrast): 0.000%
course of contrast enhancement after maximum, liver ([3]; 0.1 mM/kg intravenously): decreased rapidly
enhancement of the liver compared to Gd DTPA ([3]; 0.1 mM/kg intravenously): improved enhancement
time of maximum contrast enhancement, liver ([3]; 0.1 mM/kg intravenously): 11 min
time at which contrast enhancement of liver was well demonstrated ([3]; 0.1 mM/kg intravenously): 11 min
contrast enhancement, liver composite (av of 3) [3, 4]: 21.943%
contrast enhancement, liver composite (av of 3) [3, 5]: 13.116%
contrast enhancement, liver composite (av of 3) [3, 6]: 15.632%
contrast enhancement, liver composite (av of 3) [3, 7]: 11.724%
contrast enhancement, liver composite (av of 3) [3, 8]: 13.202%
contrast enhancement, liver composite (av of 3) [3, 9]: 8.360%
contrast enhancement, liver composite (av of 3) [3, 10]: 11.639%
contrast enhancement, liver composite (av of 3) [3, 11]: 15.451%
contrast enhancement, liver composite (av of 3) [3, 12]: 0.000%
time at which contrast agent appears to have been cleared from the liver ([3]; rabbit, in vivo, iv): 76 min

O=C([O-])CN(CCN(CC(=O)[O-])CC(=O)N[C@H]1C(O)O[C@H](CO)[C@@H](O)[C@@H]1O)CCN(CC(=O)[O-])CC(=O)N[C@H]1C(O)O[C@H](CO)[C@@H](O)[C@@H]1O.[Gd+3] (stereo partly shown) [Gd DTPA Bis-Glucosamide, gadolinium DTPA bis-glucosamide]
course of contrast enhancement after maximum, kidney [1]: decreased gradually
enhancement of the kidney compared to Gd DTPA [1]: improved enhancement
time until which maximum contrast enhancement was maintained, kidney [1]: 22 min
time at which contrast enhancement of kidney was well demonstrated [1]: 11 min
contrast enhancement, kidney composite (av of 3) ([1]; 11 min. P.I.): 77.532%
contrast enhancement, kidney composite (av of 3) ([1]; 21 min. P.I.): 68.552%
contrast enhancement, kidney composite (av of 3) ([1]; 31 min. P.I.): 46.320%
contrast enhancement, kidney composite (av of 3) ([1]; 44 min. P.I.): 42.172%
contrast enhancement, kidney composite (av of 3) ([1]; 54 min. P.I.): 31.288%
contrast enhancement, kidney composite (av of 3) ([1]; 64 min. P.I.): 30.596%
contrast enhancement, kidney composite (av of 3) ([1]; 76 min. P.I.): 22.065%
contrast enhancement, kidney composite (av of 3) ([1]; Pre-Contrast): 0.000%
contrast enhancement, muscle composite (av of 3) ([2]; 11 min. P.I.): 3.791%
contrast enhancement, muscle composite (av of 3) ([2]; 21 min. P.I.): -3.481%
contrast enhancement, muscle composite (av of 3) ([2]; 31 min. P.I.): -2.205%
contrast enhancement, muscle composite (av of 3) ([2]; 44 min. P.I.): -6.098%
contrast enhancement, muscle composite (av of 3) ([2]; 54 min. P.I.): -7.962%
contrast enhancement, muscle composite (av of 3) ([2]; 64 min. P.I.): -11.035%
contrast enhancement, muscle composite (av of 3) ([2]; 76 min. P.I.): -5.465%
contrast enhancement, muscle composite (av of 3) ([2]; Pre-Contrast): 0.000%
course of contrast enhancement after maximum, liver ([3]; 0.1 mM/kg intravenously): decreased gradually
decrease in contrast, liver versus kidney ([3]; 0.1 mM/kg intravenously): slower in the liver than in the kidney
enhancement of the liver compared to Gd DTPA ([3]; 0.1 mM/kg intravenously): improved enhancement
time until which maximum contrast enhancement was maintained, liver ([3]; 0.1 mM/kg intravenously): 22 min
time at which contrast enhancement of liver was well demonstrated ([3]; 0.1 mM/kg intravenously): 11 min
contrast enhancement, liver composite (av of 3) [3, 4]: 17.157%
contrast enhancement, liver composite (av of 3) [3, 5]: 14.172%
contrast enhancement, liver composite (av of 3) [3, 6]: 11.053%
contrast enhancement, liver composite (av of 3) [3, 7]: 7.390%
contrast enhancement, liver composite (av of 3) [3, 8]: 9.910%
contrast enhancement, liver composite (av of 3) [3, 9]: 3.151%
contrast enhancement, liver composite (av of 3) [3, 10]: 1.750%
contrast enhancement, liver composite (av of 3) [3, 12]: 0.000%

Cc1ncc(CO)c(CNC(=O)CN(CCN(CCN(CC(=O)[O-])CC(=O)NCc2c(CO)cnc(C)c2O)CC(=O)[O-])CC(=O)[O-])c1O.[Gd+3] [Gd DTPA Bis-Pyridoxamide, Gadolinium DTPA bis-pyriodoxamide]
enhancement of the kidney compared to Gd DTPA [1]: improved renal enhancement
time of maximum contrast enhancement, kidney [1]: 11 min
time at which contrast enhancement of kidney was well demonstrated [1]: 11 min
contrast enhancement, kidney composite (av of 3) ([1]; 11 min. P.I.): 72.341%
contrast enhancement, kidney composite (av of 3) ([1]; 21 min. P.I.): 50.381%
contrast enhancement, kidney composite (av of 3) ([1]; 31 min. P.I.): 53.753%
contrast enhancement, kidney composite (av of 3) ([1]; Pre-Contrast): 0.000%
contrast enhancement, muscle composite (av of 3) ([2]; 11 min. P.I.): 7.089%
contrast enhancement, muscle composite (av of 3) ([2]; 21 min. P.I.): 6.846%
contrast enhancement, muscle composite (av of 3) ([2]; 31 min. P.I.): -12.884%
contrast enhancement, muscle composite (av of 3) ([2]; Pre-Contrast): 0.000%
liver enhancement (in words) ([3]; 0.1 mM/kg intravenously): negative liver enhancement
contrast enhancement, liver composite (av of 3) [3, 4]: -4.567%
contrast enhancement, liver composite (av of 3) [3, 5]: -4.805%
contrast enhancement, liver composite (av of 3) [3, 6]: -3.018%
contrast enhancement, liver composite (av of 3) [3, 12]: 0.000%

Source: patent publication US5330743A, “Aminosaccharide contrast agents for magnetic resonance images” (Magnetic Research, Inc., priority 1992, dated 1994)
